Experimental data reported in ChEMBL document CHEMBL4219169, “Sulfoximines as potent RORγ inverse agonists” (Bioorg Med Chem Lett, 2018).

What was measured:
[1] = Lipophilicity, log D of the compound at pH 6.5 by HPLC analysis; type: physicochemical; details: buffer
[2] = test system: Mus musculus; assay: In vivo inverse agonist activity at RORgamma in wild type BALB/c ByJ Rj mouse model of imiquimod-induced skin inflammation model assessed as attenuation of imiquimod-induced epidermal hyperplasia at 0.01% administered topically daily for 7 days dosed 2 hrs before imiquimod administration measured on day 8 by hematoxylin and eosin staining-based histological analysis; type: functional
[3] = test system: TK6; assay: Genotoxicity in human TK6 cells incubated for 3 hrs in presence of aroclor-1254-induced rat S9 fraction followed by 27 hrs recovery period by Giemsa staining dependent optical microscopy based micronucleus test; type: toxicity, cell-based; details: s9, 3 h
[4] = Fraction unbound in human plasma at 5 uM incubated for 4 hrs at 37 degC by LC-MS/MS method; type: ADME, cell-free
[5] = test system: TK6; assay: Genotoxicity in human TK6 cells incubated for 3 hrs in absence of aroclor-1254-induced rat S9 fraction followed by 27 hrs recovery period by Giemsa staining dependent optical microscopy based micronucleus test; type: toxicity, cell-based; details: tk6, 3 h
[6] = test system: Salmonella typhimurium; assay: Genotoxicity in Salmonella typhimurium TA98 in absence of aroclor-1254-induced rat S9 fraction by Ames test; type: toxicity, organism-based; details: salmonella enterica subsp. enterica serovar typhimurium
[7] = Phototoxicity against human neonatal keratinocytes assessed as cell viability preincubated for 30 mins before 5 J/cm2 UV light irradiation for 15 mins followed by treatment medium replacement with fresh culture medium after 24 hrs by neutral red dye-based assay; details: 0.25 h
[8] = target: T1, Nuclear receptor ROR-alpha (Homo sapiens, UniProt P35398); assay: Inverse agonist activity at RORalpha (unknown origin) expressed in human HeLa-derived HG5LN cells transfected with the GAL4 DNA-binding domain fused to the RORalpha ligand-binding domain assessed as inhibition of transcriptional activity after 18 hrs by luminescence-based luciferase reporter gene assay; type: cell-based
T1 sequence (P35398 whole entry): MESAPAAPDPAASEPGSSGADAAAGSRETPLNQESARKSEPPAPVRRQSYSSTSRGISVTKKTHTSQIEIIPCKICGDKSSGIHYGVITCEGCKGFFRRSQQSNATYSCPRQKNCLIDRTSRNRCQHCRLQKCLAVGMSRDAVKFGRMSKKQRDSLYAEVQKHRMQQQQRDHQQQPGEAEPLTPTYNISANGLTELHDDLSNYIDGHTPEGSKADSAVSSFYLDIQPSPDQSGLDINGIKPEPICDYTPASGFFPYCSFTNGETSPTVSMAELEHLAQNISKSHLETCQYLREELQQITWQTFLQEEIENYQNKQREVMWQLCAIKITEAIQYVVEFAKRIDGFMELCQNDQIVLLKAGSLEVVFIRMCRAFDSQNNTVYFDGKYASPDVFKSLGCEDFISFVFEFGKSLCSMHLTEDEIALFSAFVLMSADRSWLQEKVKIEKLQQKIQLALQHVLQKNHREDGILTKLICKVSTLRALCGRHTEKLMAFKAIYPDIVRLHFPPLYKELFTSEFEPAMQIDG

[9] = test system: Salmonella typhimurium; assay: Genotoxicity in Salmonella typhimurium TA100 in absence of aroclor-1254-induced rat S9 fraction by Ames test; type: toxicity, organism-based; details: salmonella enterica subsp. enterica serovar typhimurium
[10] = test system: TK6; assay: Genotoxicity in human-derived p53-competent TK6 cells expressing GADD45a-dependent green fluorescent protein assessed as decrease in cell viability after 48 hrs in presence of Sprague-Dawley rat S9 fraction by FACS analysis; type: toxicity, cell-based; details: s9, 48 h
[11] = test system: Salmonella typhimurium; assay: Genotoxicity in Salmonella typhimurium TA100 in presence of aroclor-1254-induced rat S9 fraction by Ames test; type: toxicity, organism-based; details: salmonella enterica subsp. enterica serovar typhimurium
[12] = test system: TK6; assay: Genotoxicity in human TK6 cells incubated for 27 hrs in absence of aroclor-1254-induced rat S9 fraction by Giemsa staining dependent optical microscopy based micronucleus test; type: toxicity, cell-based; details: tk6, 27 h
[13] = test system: Salmonella typhimurium; assay: Genotoxicity in Salmonella typhimurium TA98 in presence of aroclor-1254-induced rat S9 fraction by Ames test; type: toxicity, organism-based; details: salmonella enterica subsp. enterica serovar typhimurium
[14] = Intrinsic clearance in human hepatocytes assessed per million cells at 1 uM incubated for 5 to 90 mins by LC-MS/MS method; type: ADME, cell-based, Hepatocyte; details: read-out: CLH
[15] = test system: TK6; assay: Genotoxicity in human-derived p53-competent TK6 cells expressing GADD45a-dependent green fluorescent protein assessed as decrease in cell viability after 48 hrs in absence of Sprague-Dawley rat S9 fraction by FACS analysis; type: toxicity, cell-based; details: tk6, 48 h

Compound | logD [1] | further results
CCc1ccc(N(CC(C)C)S(=O)(=O)c2ccc(OCC3CCOCC3)c(S(C)(=O)=O)c2)cc1 | 5.8 | –
CCc1ccc(N(CC(C)C)S(=O)(=O)c2ccc(OCC3CCOCC3)c(CC(=O)O)c2)cc1 | 3.1 | –
CCc1ccc(N(CC(C)C)S(=O)(=O)c2ccc(OCC3CCOCC3)c(CO)c2)cc1 [GSK2981278] | 5.9 | –
CCc1ccc(N(CC(C)C)S(=O)(=O)c2ccc(NCC3(CC)CCOCC3)c(S(C)(=N)=O)c2)cc1 (stereo not drawn) | 6.1 | –
CCc1ccc(N(CC(C)C)S(=O)(=O)c2ccc(OCC3CCOCC3)c(CC(N)=O)c2)cc1 | 4.8 | –
CCc1ccc(N(CC(C)C)S(=O)(=O)c2ccc(OCC3CCOCC3)c([S+](C)[O-])c2)cc1 (stereo not drawn) | 5.4 | –
CCc1ccc(N(CC(C)C)S(=O)(=O)c2ccc(N(C)CC3CCOCC3)c(S(C)(=N)=O)c2)cc1 (stereo not drawn) | 5.2 | –
CCc1ccc(N(CC(C)C)S(=O)(=O)c2ccc(OC3CCN(S(C)(=O)=O)CC3)c(S(C)(=N)=O)c2)cc1 (stereo not drawn) | 4.6 | –
CCc1ccc(N(CC(C)C)S(=O)(=O)c2ccc(N[C@@H](C)C3CCOCC3)c(S(C)(=N)=O)c2)cc1 (stereo partly drawn) | 5.6 | –
CCc1ccc(N(CC(C)C)S(=O)(=O)c2ccc(NCC3(O)CCOCC3)c(S(C)(=N)=O)c2)cc1 (stereo not drawn) | 4.1 | –
CCc1ccc(N(CC(C)C)S(=O)(=O)c2ccc(OCC3CCOCC3)cc2)cc1 | 7.2 | –
CCc1ccc(N(CC(C)C)S(=O)(=O)c2ccc(NCC3CCOCC3)c(S(C)(=N)=O)c2)cc1 (stereo not drawn) | 5.3 | –
CCc1ccc(N(CC(C)C)S(=O)(=O)c2ccc(NCC3(C)CCOCC3)c(S(C)(=N)=O)c2)cc1 (stereo not drawn) | 5.7 | –
CCc1ccc(N(CC(C)C)S(=O)(=O)c2ccc(OC3CCOCC3)c(S(C)(=N)=O)c2)cc1 (stereo not drawn) | 4.4 | –
CCc1ccc(N(CC(C)C)S(=O)(=O)c2ccc(N3CCN(C(C)=O)CC3)c(S(C)(=N)=O)c2)cc1 (stereo not drawn) | 3.8 | –
CCc1ccc(N(CC(C)C)S(=O)(=O)c2ccc(CCN3CCOCC3)c(S(C)(=N)=O)c2)cc1 (stereo not drawn) | 4 | –
CCCCC(=O)O[C@]1(C(=O)CO)[C@@H](C)C[C@H]2[C@@H]3CCC4=CC(=O)C=C[C@]4(C)[C@@]3(F)[C@@H](O)C[C@@]21C [BETAMETHASONE VALERATE] | – | Activity [2]: 72%
CCc1ccc(N(CC(C)C)S(=O)(=O)c2ccc(N[C@H](C)C3CCOCC3)c(S(C)(=N)=O)c2)cc1 (stereo partly drawn) | 5.6 | –
CCc1ccc(N(CC(C)C)S(=O)(=O)c2ccc(OCC3CCOCC3)c(S(N)(=O)=O)c2)cc1 | 5.3 | –
CCc1ccc(N(CC(C)C)S(=O)(=O)c2ccc(NCC3(F)CCOCC3)c(S(C)(=N)=O)c2)cc1 (stereo not drawn) | 5.2 | –
CCc1ccc(N(CC(C)C)S(=O)(=O)c2ccc(OCC3CCOCC3)c([S@](C)(=N)=O)c2)cc1 | – | Activity [3]: Non-Toxic; fraction unbound at 4 h, 5 µM [4]: 0.049; Activity [5]: Non-Toxic; Activity [6]: Non-Toxic; Activity [7]: Non-Toxic; IC50 [8]: > 10 µM; Activity [9]: Non-Toxic; Activity [10]: Non-Toxic; Activity [11]: Non-Toxic; Activity [12]: Non-Toxic; Activity [13]: Non-Toxic; hepatocyte CLint at 1 µM [14]: 160 µL/min/1e6 cells; Activity [15]: Non-Toxic
CCc1ccc(N(CC(C)C)S(=O)(=O)c2ccc(OC3CCN(C(C)=O)CC3)c(S(C)(=N)=O)c2)cc1 (stereo not drawn) | 3.8 | –
CCc1ccc(N(CC(C)C)S(=O)(=O)c2ccc(OCC3CCOCC3)c(S(=N)(=O)CC)c2)cc1 (stereo not drawn) | 5 | –
CCc1ccc(N(CC(C)C)S(=O)(=O)c2ccc(OCC3CCOCC3)c(S(C)(=N)=O)c2)cc1 (stereo not drawn) | 4.6 | –
CCc1ccc(N(CC(C)C)S(=O)(=O)c2ccc(OCC3CCOCC3)c(S(C)(=O)=NC)c2)cc1 (stereo not drawn) | 5.2 | –
CCc1ccc(N(CC(C)C)S(=O)(=O)c2ccc(OCC3CCOCC3)c(CC#N)c2)cc1 | 6.5 | –
